What is called ED50 is the dose at which the effect has come halfway, by size or by number of responders.

Where a name gives a salt, the structure may show the parent alone. Read-outs that look alike come from different tables or passages of the source.

This is an account of results in patent publication US5449673A, “10,11-dihydro-10-(3-substituted-1-oxo-2-propyl, propenyl or propynyl)dibenz[b,f][1,4] oxazepine prostaglandin antagonists” (G. D. Searle & Co., priority 1994, dated 1995).

One assay deals with mice. In words: PBQ Writhing Assay (analgesia in mice). Type of assay: in vivo, mouse (Charles River male albino mice). The note with it: for responders at 30 mg/kg: 0.5 h, 30 mg per kg, 30 min before PBQ, fraction out of 9 or 10 mice; for rank order of potency in the Writhing Assay: more potent compounds tested. The text has this: The Writhing Assay is one of the most widely-used experimental procedures for measuring the analgesic activity of different narcotic and nonnarcotic analgesic agents, and involves the continuous, chemically-induced pain of visceral origin to an animal, such as a mouse or rat. [Gyires et al., Arch. int. Pharmacodyn, 267, 131-140 (1984); C. Vander Wende et al., Fed. Proc., 15, 494 (1956); Koster et al., Fed. Proc., 18, 412 (1959); and Witken et al., J. Pharmacol. exp. Ther., 133, 400-408 (1961).] Chemicals which may be used to induce this pain include phenylbenzoquinone (PBQ) and acetic acid. As a result of the chemical irritation to the animal, a characteristic stretching and writhing of the animal (dorsiflexion of the animal's back, extension of its hindlimbs and the strong contraction of its abdominal musculature) will generally occur. […] Drugs which reduce the number of writhes of the animal appear to restore the normal nociceptive threshold of the animal.
Charles River male albino mice, weighing 20 to 30 grams were used in this assay.
Thirty minutes after subcutaneous or intragastric administration to ten mice of 30 mg per kilogram of body weight of a compound of the present invention ("test compound"), […] per 10 g of body weight of a 0.025% w/v solution of PBQ was injected intraperitoneally into each mouse. Ten mice which were given saline in place of a test compound of the invention were used as a control group.
Five minutes later, each mouse was individually placed into a glass beaker for observation, and the number of writhes occurring during the following tenminute period was counted.
A test compound was considered to have produced analgesia in a mouse if, in accordance with the conditions set forth above, and under the test criteria employed for this assay, after the administration of 30 mg per kilogram of body weight of a compound of the present invention to the mouse, the number of writhes elicited by a mouse injected with PBQ was equal to, or less than, one-half the median number of writhes recorded for the saline-treated control group of mice that day, as described by Taber in "Predictive Value of Analgesic Assays in Mice and Rats," Advances in Biochemical Psychopharmacology, 8, 191 (1974).
The standard initial screening dose of a test compound employed in this assay was […] for both routes of administration. If this initial screening dose of the test compound produced analgesia in seven of ten mice, then the effect of additional doses of the test compound on the writhing response was evaluated, and then the ED50 dose was generally calculated. (The slopes of the dose-response curves for all test compounds analyzed were compared as described by Taltarida and Murray, Manual of Pharmacologic Calculations, Page 11 (Springer Verlag, New York, 1981)).
The results for the particular compounds of the present invention analyzed in this assay, and discussed in the examples identified below which correspond thereto, are presented in Table I hereinbelow under the heading "PBQ WRITHING ASSAY". The fractions indicate the number of mice out of 9 or 10 in which the initial screening dose of a test compound produced analgesia. The numbers which are not fractions represent ED50 doses.
(In general: In writhing tests, fewer writhes than in controls are read as antinociception.)

Assay [1] addresses T1, prostaglandin E2-induced contractions of segments of guinea pig ileum (Cavia porcellus, UniProt A0A286XHJ6).
T1 construct: Segments of ileum about 2 cm long were then cut and mounted in a 10-mL tissue bath; from tissue; host or cells: ileum segments of male albino guinea pigs
T1 sequence (A0A286XHJ6 1-405): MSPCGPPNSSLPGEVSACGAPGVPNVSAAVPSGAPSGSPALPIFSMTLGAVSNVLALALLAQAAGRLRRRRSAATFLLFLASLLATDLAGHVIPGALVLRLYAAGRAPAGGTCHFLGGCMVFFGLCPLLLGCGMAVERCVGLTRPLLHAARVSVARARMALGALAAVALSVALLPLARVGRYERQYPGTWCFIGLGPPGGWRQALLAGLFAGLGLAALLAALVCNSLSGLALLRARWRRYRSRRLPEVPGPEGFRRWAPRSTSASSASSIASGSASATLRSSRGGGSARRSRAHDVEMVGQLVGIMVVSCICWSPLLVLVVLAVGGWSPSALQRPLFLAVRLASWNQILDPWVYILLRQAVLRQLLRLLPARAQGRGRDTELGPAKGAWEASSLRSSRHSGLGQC
Kind of assay: Prostaglandin (PGE) Antagonism Assay, inhibition of prostaglandin E2-induced contractions of guinea pig ileum segments. Details: species or system guinea pig (male albino). The note with it: 37° C., Schild plot, read-out: PGE ANTAGONISM IN GUINEA PIG ILEUM (pA2) (converted). How it is done:
In order to determine the effectiveness of several of the compounds of the present invention ("test compounds") as prostaglandin E2 antagonists,a prostaglandin antagonism assay was conducted, as described below, to determine the ability of these compounds to inhibit prostaglandin E2 -induced contractions of segments of guinea pig ileum.
Male albino guinea pigs weighing 200 to 500 grams were sacrificed by cervical dislocation.
The ileums were then quickly removed from the guinea pigs and placed in a modified Tyrode solution, a solution which is known to those of skill in the art, containing one-half of the usual amount of magnesium ions.
Segments of ileum about 2 cm long were then cut and mounted in a 10-mL tissue bath containing the modified Tyrode solution. The solution was maintained at 37° C. and aerated with a gaseous mixture of 95% oxygen and 5% carbon dioxide.
Submaximal contractions of the ileum segments were then generated by injecting prostaglandin E2 into the bath, and detected isotonically. Data for a control prostaglandin E2 dose response curve plotting concentration of prostaglandin E2 versus number of contractions generated was then obtained by experimentally adjusting the dose of the prostaglandin E2 being injected into the tissue bath, in a manner known by those of skill in the art.
Solutions or suspensions containing an initial amount of a test compound in modified Tyrode solution ("test solutions/suspensions") were then separately substituted for the tissue bath. Each test solution/suspension was then kept in constant contact with the ileum tissue, except for brief periods to drain the bath in preparation for rinsing with fresh test solution/suspension. Different doses of prostaglandin E2 were again injected into the test solutions/suspensions.
A second prostaglandin E2 dose response curve was then generated for PGE2 in the presence of a test compound.
A dose ratio of EC50 doses (that dose of a compound or drug which is necessary to elicit a 50% maximal biological response and, thus, which is necessary to elicit a 50% reduction in the contractions of %he guinea pig ileum segments in this assay) was then calculated from the results of each test in a manner known by those of skill in the art. […]
If the initial concentration of a test compound was determined to be "active," then varying concentrations of the test compound were then assayed.
The pA2 value (a statistical constant which is a common measure of expressing the potency of a particular drug as a competitive antagonist) was then calculated for each test compound by schild plot calculations, as described by H. O. Schild, "pA A New , Scale for the Measurement of Drug Antagonism, " Br. J. Pharmacol, 2, 189 (1947), according to the following mathematical formula: […]

In assay [2] the test system is isolated smooth muscle preparations. The note with it: cited from earlier work.
Assay [3] deals with urethane-anesthetized rats. As to conditions: cited from earlier work.
Setting [4] is: Mus musculus, po, intragastric, mice, read-out: PBQ WRITHING ASSAY, No. Out of 10 (mice in which the initial screening dose produced analgesia), I.G. (converted).
Where [5] appears, read: Mus musculus, sc, subcutaneous, mice, read-out: PBQ WRITHING ASSAY, No. Out of 10 (mice in which the initial screening dose produced analgesia), S.C. (converted).

Take `CCCCC(C)(C/C=C\C(=O)N1Cc2ccccc2Oc2ccc(Cl)cc21)O[Si](C)(C)C` (centres unmarked) [Example 4, 8-chloro-10,11-dihydro-10-[5-methyl-1-oxo-5-[(trimethylsilyl)oxy]-2Z-nonenyl]-dibenz[b,f][1,4]oxazepine]: the responders at 30 mg/kg is 50% with mice (setting [4]) and 80% in the assay on mice (setting [5]).
In the case of `CCCCC(C)(C/C=C/C(=O)N1Cc2ccccc2Oc2ccc(Cl)cc21)O[Si](C)(C)C` (centres unmarked) [Example 5, 8-chloro-10,11-dihydro-10-[5-methyl-1-oxo-5-[(trimethylsilyl)oxy]-2E-nonenyl]-dibenz[b,f][1,4]oxazepine], the responders at 30 mg/kg with mice (setting [4]) is 30%; with mice (setting [5]), 60%.
For `CCCCC(C)(O)C/C=C/C(=O)N1Cc2ccccc2Oc2ccc(Cl)cc21` (centres unmarked) [Example 6, 8-chloro-10,11-dihydro-10-(5-hydroxy-5-methyl-1-oxo-2E-nonenyl)dibenz[b,f][1,4]oxazepine], the responders at 30 mg/kg in the assay with mice (setting [4]) and in the assay with mice (setting [5]) was 40% in each case. Also, in assay [1], the Kb is 166 nM.
`CCCCCC(C)(/C=C/C(=O)N1Cc2ccccc2Oc2ccc(Cl)cc21)O[Si](C)(C)C` (centres unmarked) [Example 8, 8-chloro-10,11-dihydro-10-[4-methyl-1-oxo-4-[(trimethylsilyl)oxy]-2E-nonenyl]dibenz-[b,f][1,4]oxazepine]: the responders at 30 mg/kg was 60% in the assay on mice (setting [4]) and 40% in the assay on mice (setting [5]).
As to `CCCCCC(C)(O)/C=C/C(=O)N1Cc2ccccc2Oc2ccc(Cl)cc21` (centres unmarked) [Example 9, 8-chloro-10,11-dihydro-10-(4-hydroxy-4-methyl-1-oxo-2E-nonenyl)dibenz[b,f][1,4]oxazepine], the results for the responders at 30 mg/kg in the assay with mice (setting [4]) and with mice (setting [5]) were 50% and 90%, respectively. The Kb in assay [1] was 617 nM.
For `CCCCCC(O)/C=C/C(=O)N1Cc2ccccc2Oc2ccc(Cl)cc21` (centres unmarked) [Example 11], in that order: 20%, 30% and 214 nM.
Turning to `CCCCCC(/C=C/C(=O)N1Cc2ccccc2Oc2ccc(Cl)cc21)OC(=O)CN` (centres unmarked) [Example 12, glycine, 1-[3-(8-chloro-10,11-dihydrodibenz-[b,f][1,4]oxazepin-10-yl)-3-oxo-1E-propenyl]-hexyl ester, monohydrochloride], the values for the responders at 30 mg/kg with mice (setting [4]) and in the assay on mice (setting [5]) were 55.6% and 30%, respectively. Further, the “rank order of potency in the Writhing Assay” value in the assay with mice is “Example 17 > Example 9 > Example 4 > Example 8 > Example 5 > Example 12”.
For the compound `CCCCCC(=O)/C=C/C(=O)N1Cc2ccccc2Oc2ccc(Cl)cc21` [Example 13, 8-chloro-10,11-dihydro-10-(1,4-dioxo-2E-nonenyl)dibenz[b,f][1,4]oxazepin], the results for the responders at 30 mg/kg in the assay on mice (setting [4]) and with mice (setting [5]) were 10% and 22.2%, respectively.
For `CCCCCC/C=C/C(=O)N1Cc2ccccc2Oc2ccc(Cl)cc21` [Example 14, 8-chloro-10,11-dihydro-10-(1-oxo-2E-nonenyl)dibenz[b,f][1,4]oxazepine], in that order: 10% and 10%.
For `CCCCCC(O)C#CC(=O)N1Cc2ccccc2Oc2ccc(Cl)cc21` (centres unmarked) [Example 15, 8-chloro-10,11-dihydro-10-(4-hydroxy-1-oxo-2-nonynyl)dibenz[b,f][1,4]oxazepine], in that order: 10% and 30%.
As for `O=C(CCC(=O)N1Cc2ccccc2Oc2ccc(Cl)cc21)CCc1ccncc1` [Example 17, 8-chloro-10-[1,4-dioxo-6-(4-pyridinyl)hexyl]-10,11-dihydrodibenz[b,f][1,4]-oxazepine, monohydrochloride], in the assay with mice (Mus musculus, po, intragastric, mice, ED50 dose, read-out: PBQ WRITHING ASSAY, ED50, I.G.), the ED50 was 5.4 mg/kg. Besides, the “most potent compound tested in the Writhing Assay” value in the assay on mice (in words) is reported as “the most potent compound of the invention tested in this assay”. Besides, the “rank order of potency in the Writhing Assay” value in the assay with mice is listed as “Example 17 > Example 9 > Example 4 > Example 8 > Example 5 > Example 12”. The Kb in assay [1] was 102 nM.
Regarding `O=C(Cc1ccccc1)NNC(=O)N1Cc2ccccc2Oc2ccc(Cl)cc21` [SC-18637], the “inhibition of the stimulant actions of prostaglandins” value in assay [2] was “inhibit the stimulant actions of prostaglandins on isolated smooth muscle preparations”.
Consider `CC(=O)NNC(=O)N1Cc2ccccc2Oc2ccc(Cl)cc21` [SC-19220], for which the “inhibition of the stimulant actions of prostaglandins” value in assay [2] was “inhibit the stimulant actions of prostaglandins on isolated smooth muscle preparations”. Besides, in assay [3], the bladder capacity entry is “increased the bladder capacity” and the “voiding efficiency of micturition” value is given as “reduced the voiding efficiency of micturition”.
